Measurements from US20140235630A1, “COMPOSITIONS AND METHODS FOR THE TREATMENT OF PROLIFERATIVE DISEASES” (Beth Israel Deaconess Medical Center, Inc., priority 2011, published 2014).

Assays:
[1] = system: phospho-AKT (S473); test: AKT phosphorylation in tumor tissue (immunohistochemistry / immunoblot); assay type: in vivo, mouse; settings: for AKT phosphorylation in tumor tissue lysates: immunoblot, tumor taken 2-3 hours after last dose, Compound A 30 mg/kg/day, Compound B 50 mg/kg/day
Method: (§1) All animal experiments were conducted in accordance with IACUC-approved protocols at Beth Israel Deaconess Medical Center, Boston, and at the University of Vall d'Hebron, Barcelona, Spain. Female MMTV-CreBRCA1^f/fp53+/− mice were obtained by breeding BRCA1 conditional knockout mice from the NIH repository (01XC8, strain C57BL/6) (Xu et al. Nat. Genet., 22: 37-43, 1999); with MMTV-Cre (Jackson Laboratory B6129-TgN(MMTV-Cre)4Mam) (Wagner et al. Nucleic Acids Res., 25: 4323-4330, 1997) and p53 knockout (Taconic Farms, P53N12-M, C57BL/6) (Donehower et al. Nature, 356: 215-221, 1992). At the time of the study, mice had been inbred for 4 years (>7 generations). The floxed or wild type status of Brca1, the presence of the MMTV-Cre transgene and the p53 heterozygosity were determined by PCR. Mice were examined for the occurrence of tumors twice weekly. When tumormetrics were performed, the length and width of the tumor was determined using calipers, and the tumor volume was determined (width^2×length/2). Tumor volume was used as a measure of growth and was recorded as ratio to tumor volume at diagnosis. Tumor doubling times were calculated using the functions of the best fit curves for all data points in each treatment modality. 5-(2,6-dimorpholinopyrimidin-4-yl)-4-(trifluoromethyl)pyridin-2-amine (Compound A) was resuspended in 5% Methylcellulose solution (Fluka) and administered via oral gavage at 50 mg/kg/day or 30 mg/kg/day. […]
Cells were treated with mock, 5-(2,6-dimorpholinopyrimidin-4-yl)-4-(trifluoromethyl)pyridin-2-amine (Compound A), 4-[[3-[4-(cyclopropanecarbonyl)piperazine-1-carbonyl]-4-fluorophenyl]methyl]-2H-phthalazin-1-one (Compound B), KU-55933, or the combination and lysed in cell lysis buffer (9803, Cell Signaling) as per the manufacturer's instructions. […] The protein concentration was determined using Bradford reagent (Biorad). […]

[2] = system: spontaneous tumors of MMTV-CreBRCA1^f/fp53+/− mice; test: Tumor growth (relative tumor volume, doubling time) in spontaneous BRCA1-related breast cancer model; assay type: in vivo, mouse; settings: for tumor doubling time: Compound A 50 or 30 mg/kg/day gavage (pooled), Compound B 50 mg/kg/day i.p., vehicle 5 days; for prolongation of tumor doubling time versus vehicle control: versus 5 days with vehicle
Method: FIGS. 6A-6D are graphs showing the synergistic effect of a PI3K inhibitor (Compound A) and PARP inhibitor (Compound B) in treating breast cancer. Trendlines (bold lines) were calculated using all data points to determine best fit and show the relative tumor growth in the vehicle control cohort (as in FIG. 6A) and in the Compound A cohort (as in FIG. 6B). The functions of the best-fit curves were used to determine tumor doubling times for all three treatment modalities and controls. Tumor-bearing MMTV-CreBRCA1^f/fp53+/− were treated with either vehicle control (6A); Compound A (6B, 50 mg/kg/day (n=11) or 30 mg/kg/day (n=10)); Compound B (6C, 50 mg/kg/day (n=8)); or the combination of Compound A and Compound B (6D, Compound A 50 mg/kg/day+Compound B 50 mg/kg/day (n=8) or Compound A 30 mg/kg/day+Compound B 50 mg/kg/day (n=7)) and tumor volumes were measured every 2-3 days using calipers.
FIG. 7 is a graph showing the relative tumor volume (RTV) over time of tumor-bearing MMTV-CreBRCA1^f/fp53+/− mice treated with a control vehicle (n=3), PI3Kα-specific inhibitor Compound C alone (n=7), or a combination of pan-PARP inhibitor Compound B and PI3Kα-specific inhibitor Compound C (n=6). The data of the control and Compound C alone treatment groups are represented by trendlines calculated using all data points to determine best fit. The data of the combination treatment group are individually represented.
as §1, with “modality.” for “modality. 5-(2,6-dimorpholinopyrimidin-4-yl)-4-(trifluoromethyl)pyridin-2-amine (Compound A) was resuspended in 5% Methylcellulose solution (Fluka) and administered via oral gavage at 50 mg/kg/day or 30 mg/kg/day.”

Row | Compound | phosphorylation of AKT at Ser-473 in tumors ([1]; IHC of biopsies before and after two weeks of treatment) | AKT phosphorylation in tumor tissue lysates [1] | tumor doubling time [2] | prolongation of tumor doubling time versus vehicle control [2]
1 | Nc1cc(C(F)(F)F)c(-c2cc(N3CCOCC3)nc(N3CCOCC3)n2)cn1 [Compound A, 5-(2,6-dimorpholinopyrimidin-4-yl)-4-(trifluoromethyl)pyridin-2-amine] | strongly decreased | potently reduced | 26 days | 5 fold
2 | O=C(c1cc(Cc2n[nH]c(=O)c3ccccc23)ccc1F)N1CCN(C(=O)C2CC2)CC1 [Compound B, 4-[[3-[4-(cyclopropanecarbonyl)piperazine-1-carbonyl]-4-fluorophenyl]methyl]-2H-phthalazin-1-one, reference compound] | – | induction of AKT phosphorylation | 16 days | three-fold
